Legend:
[1] = system: human acute monocytic leukaemia cell line (THP-1); assay: Monocyte mobilization effect: THP-1 cell migration rate in Transwell; assay type: cell-based; settings: 3 hr; for cell migration rate (monocyte mobilization effect) compared to the control: 10 nM, FIG. 1, Ret-LysoPC of Example 1-2, Ret-PC of Comparative Example 1
Procedure: A cell suspension of human acute monocytic leukaemia cell line (hereinafter to be referred to as “THP-1”) (manufactured by ATCC) was centrifuged, the supernatant was discarded, 0.1% bovine serum albumin (fatty acid-free, manufactured by SIGMA ALDRICH)-containing RPMI-1640 (manufactured by Life Technologies) was added to give a dispersion. It was centrifuged again, the supernatant was discarded to give cell pellets. 0.1% Bovine serum albumin-containing RPMI-1640 was added to adjust the cell density to 1×10^6 cells/ml. The cell suspension (100 μl/well) was added to Transwell (manufactured by Corning Incorporated, φ6.5 mm, pore size φ8.0 μm). The cells were incubated at 37° C., 5% CO2 for 30 min, and a measurement solution (all-trans retinoic acid (manufactured by Tokyo Chemical Industry Co., Ltd.) (hereinafter to be referred to as “RA”), Ret-PC of Comparative Example 1 or Ret-LysoPC of Example 1-2 dissolved in 0.1% bovine serum albumin-containing RPMI-1640 to 10 nM, and 0.1% bovine serum albumin-containing RPMI-1640 alone) was placed in the lower part of the multiple well plate (600 μl/well). After incubation at 37° C., 5% CO2 for 3 hr, the cell suspension in the multiple well plate was collected, cell density was measured by a hemacytometer and the cell migration rate was determined. The cell migration rate was defined as follows. cell migration rate (%)=(number of cells in multiple well plate)/(number of cells added to Transwell)
A cell suspension of THP-1 was centrifuged, the supernatant was discarded, 0.1% bovine serum-containing RPMI-1640 was added to give a dispersion. It was centrifuged again, the supernatant was discarded to give cell pellets. 0.1% Bovine serum albumin-containing RPMI-1640 was added to adjust the cell density to 1×10^6 cells/ml. The cell suspension (100 μl/well) was added to Transwell (manufactured by Corning Incorporated, φ6.5 mm, pore size φ8.0 μm). The cells were incubated at 37° C., 5% CO2 for 30 min, and a measurement solution (Ret-LysoPC of Examples 1-1 and 1-2 dissolved in 0.1% bovine serum albumin-containing RPMI-1640 to 10 nM, and 0.1% bovine serum albumin-containing RPMI-1640 alone) was placed in the lower part of the multiple well plate (600 μl/well). After incubation at 37° C., 5% CO2 for 3 hr, the cell suspension in the multiple well plate was collected, cell density was measured by a hemacytometer and the cell migration rate was determined.
Using human acute monocytic leukaemia cell line (THP-1) (manufactured by ATCC), a monocyte migration effect of each sample was evaluated. A cell suspension of THP-1 was centrifuged, the supernatant was discarded, 0.1% bovine serum-containing RPMI-1640 was added to give a dispersion. It was centrifuged again, the supernatant was discarded to give cell pellets. 0.1% Bovine serum albumin-containing RPMI-1640 was added to adjust the cell density to 1×10^6 cells/ml. The cell suspension (100 μl/well) was added to Transwell (manufactured by Corning Incorporated, φ6.5 mm, pore size φ8.0 μm). The cells were incubated at 37° C., 5% CO2 for 30 min, and a measurement solution (C18:0-LysoPC (COATSOME MC-80H; manufactured by NOF CORPORATION), Ret-LysoPC of Example 2 or S1P (manufactured by Toronto Research Chemicals) dissolved in 0.1% bovine serum albumin-containing RPMI-1640, and 0.1% bovine serum albumin-containing RPMI-1640 alone) was placed in the lower part of the multiple well plate ([…]). After incubation at 37° C., 5% CO2 for 3 hr, the cell suspension in the multiple well plate was collected, cell density was measured by a hemacytometer and the cell migration rate was determined.

[2] = system: monocytes and macrophages; settings: background art, non-patent documents 2, 3; cited from earlier work
[3] = system: Human bone marrow-derived mesenchymal stem cell line (UE7T-13); assay: Mesenchymal stem cell mobilization effect: UE7T-13 cell migration ratio in Transwell; assay type: cell-based; settings: 4 hr
Procedure: Human bone marrow-derived mesenchymal stem cell line (UE7T-13) (manufactured by National Institute of Biomedical Innovation JCRB Cell Bank) was previously cultured in serum-free DMEM (manufactured by SIGMA ALDRICH) for 24 hr, and 0.25% trypsin/1 mM EDTA solution (manufactured by SIGMA ALDRICH) was added to give a dispersion. 10% Serum-containing DMEM (Powered by 10 medium; manufactured by GlycoTechnica Ltd.) was added, the cell suspension was centrifuged, the supernatant was discarded, 0.1% bovine serum albumin (fatty acid-free, manufactured by SIGMA ALDRICH)-containing DMEM (manufactured by SIGMA ALDRICH) was added to give a dispersion. It was centrifuged again, the supernatant was discarded to give cell pellets. 0.1% Bovine serum albumin-containing DMEM was added to adjust the cell density to 4×10^5 cells/mi. The cell suspension (100 μl/well) was added to Transwell (manufactured by Corning Incorporated, φ6.5 mm, pore size φ8.0 μm). The cells were incubated at 37° C., 5% CO2 for 30 min, and a measurement solution (Ret-LysoPC of Example 1-2 dissolved in 0.1% bovine serum albumin-containing DMEM to 10 nM, or 0.1% bovine serum albumin-containing DMEM alone) was placed in the lower part of the multiple well plate (600 μl/well). After incubation at 37° C., 5% CO2 for 4 hr, the supernatant in the insert was removed. The cells on the upper membrane side were removed, the cells on the lower membrane side were immobilized with 4% para-formaldehyde solution, and stained with crystalviolet solution. They were washed with water, dried, and the number of cells per one field was measured by microscopic observation. The cell migration ratio was defined as follows. cell migration ratio=(number of cell per one membrane field when each measurement solution was used)/(number of cells per one membrane field of control)
The control refers to 0.1% bovine serum albumin-containing DMEM with no addition.
Human bone marrow-derived mesenchymal stem cell line (UE7T-13) (manufactured by National Institute of Biomedical Innovation JCRB Cell Bank) was previously cultured in serum-free DMEM (manufactured by SIGMA ALDRICH) for 24 hr, and 0.25% trypsin/1 mM EDTA solution (manufactured by SIGMA ALDRICH) was added to give a dispersion. 10% Serum-containing DMEM (Powered by 10 medium; manufactured by GlycoTechnica Ltd.) was added, the cell suspension was centrifuged, the supernatant was discarded, 0.1% bovine serum albumin (fatty acid-free, manufactured by SIGMA ALDRICH)-containing DMEM (manufactured by SIGMA ALDRICH) was added to give a dispersion. It was centrifuged again, the supernatant was discarded to give cell pellets. […] They were washed with water, dried, and the number of cells per one field was measured by microscopic observation. […]

[4] = 100 nM, FIG. 6, FIG. 7, Ret-LysoPC of Example 2

## CCCCCCCCCCCCCCCCCC(=O)OC[C@@H](O)COP(=O)([O-])OCC[N+](C)(C)C [C18:0-LysoPC, 1-stearoyl-lysophosphocholine]
[1]; [4]
  monocyte mobilization effect (cell migration rate): absent
[2]
  concentration at which a monocyte/macrophage mobilizing effect is exhibited: ≥ 10 µM

## CCCCCCCCCCCCC/C=C/[C@@H](O)[C@@H](N)COP(=O)(O)O [Example S1P, sphingosine-1-phosphoric acid]
[1]; 1 nM, FIG. 7
  monocyte mobilization effect (cell migration rate): did not show a significant (p<0.05) monocyte mobilization effect
[1]; [4]
  monocyte mobilization effect (cell migration rate): did not show a significant (p<0.05) monocyte mobilization effect
[3]; 10 nM, FIG. 8
  mesenchymal stem cell mobilization effect (cell migration ratio): did not show a significant (p<0.05) mesenchymal stem cell mobilization effect
[3]; 100 nM, FIG. 8
  mesenchymal stem cell mobilization effect (cell migration ratio): did not show a significant (p<0.05) mesenchymal stem cell mobilization effect
[2]
  concentration at which mobilization of monocytes and macrophages is suppressed (acting on receptor 2): ≥ 100 nM
  effective concentration range for mobilization of monocytes and macrophages: around 10 nM

## CC1=C(/C=C/C(C)=C/C=C/C(C)=C/C(=O)O)C(C)(C)CCC1 [RA, all-trans retinoic acid]
[1]
  cell migration rate (monocyte mobilization effect) compared to the control: did not show cell migration

## CC1=C(/C=C/C(C)=C/C=C/C(C)=C/C(=O)OCC(O)COP(=O)([O-])OCC[N+](C)(C)C)C(C)(C)CCC1 (stereo not drawn) [Ret-LysoPC, 1-retinoyl-sn-glycero-3-phosphocholine]
[1]
  cell migration rate (monocyte mobilization effect) compared to the control: significant (P<0.05) cell migration
[1]; [4]
  monocyte mobilization effect (cell migration rate): present
[1]; any of 1-100 nM, FIG. 7, Ret-LysoPC of Example 2
  monocyte mobilization effect (cell migration rate): showed a significant monocyte mobilization effect
[3]; 10 nM, FIG. 3, Ret-LysoPC of Example 1-2
  cell migration ratio (mesenchymal stem cell mobilization effect) compared to the control: significant cell migration
[3]; any of 1-100 nM, FIG. 8, Ret-LysoPC of Example 1-2
  mesenchymal stem cell mobilization effect (cell migration ratio): showed a significant mesenchymal stem cell mobilization effect

## CC1=C(/C=C/C(C)=C/C=C/C(C)=C/C(=O)OCC(COP(=O)([O-])OCC[N+](C)(C)C)OC(=O)/C=C(C)/C=C/C=C(C)/C=C/C2=C(C)CCCC2(C)C)C(C)(C)CCC1 (stereo not drawn) [Ret-PC, diretinoyl phosphocholine]
[1]
  cell migration rate (monocyte mobilization effect) compared to the control: did not show cell migration
